{"source": "patent US11753409B2", "about": "“Crystalline salts of a B-RAF kinase inhibitor” (Xynomic Pharmaceuticals, Inc., priority 2017, dated 2023)", "key": {"[1]": {"assay": "Sorption-desorption (DVS) of the salts with XRPD before and after", "assay_type": "physicochemical", "protocol": "Dynamic Vapor Sorption (DVS) was performed in a IGAsorp Water Sorption Analyzer from Hiden Isochema. Adsorption and desorption isotherms were performed at 25° C. with 10% RH step intervals ranging from 0% relative humidity up to 90% relative humidity."}, "[2]": {"assay": "Equilibrium solubility in various aqueous media (solubility after 2 h)", "assay_type": "physicochemical", "settings": "for solubility at 2 h: thermodynamic from solid", "protocol": "Saturated solutions are prepared in well plates by adding an appropriate volume of selected aqueous media (typically in the range of 0.25-1.5 mL) into each well which contains a known quantity of solid drug substance (typically in the range 0.5-5.0 mg). The wells are shaken or stirred for a predefined time period (typically in a range of 2-24 h) and then filtered using appropriate filter membranes (typically PTFE-filters with 0.45 μm pore size). Filter absorption is avoided by discarding the first few drops of filtrate. The amount of dissolved drug substance is determined by UV spectroscopy. In addition, the pH of the aqueous saturated solution is measured using a glass-electrode pH meter.\nThe equilibrium solubility of N-(3-(5-((1-Ethylpiperidin-4-yl)(methyl)amino)-3-(pyrimidin-5-yl)-1H-pyrrolo[3,2-b]pyridin-1-yl)-2,4-difluorophenyl)propane-1-sulfonamide monohydrochloride salt in various media was determined.\nThe solubility of N-(3-(5-((1-Ethylpiperidin-4-yl)(methyl)amino)-3-(pyrimidin-5-yl)-1H-pyrrolo[3,2-b]pyridin-1-yl)-2,4-difluorophenyl)propane-1-sulfonamide monosuccinate salt in various media was determined."}, "[3]": {"assay": "Pharmacokinetics following oral administration to rats", "assay_type": "in vivo, HsdHan:WIST Norway rats", "settings": "rat; for AUD: AUD range 0-24 h", "protocol": "The pharmacokinetics of N-(3-(5-((1-ethylpiperidin-4-yl)(methyl)amino)-3-(pyrimidin-5-yl)-1H-pyrrolo[3,2-b]pyridin-1-yl)-2,4-difluorophenyl)propane-1-sulfonamide hydrochloride salt and N-(3-(5-((1-ethylpiperidin-4-yl)(methyl)amino)-3-(pyrimidin-5-yl)-1H-pyrrolo[3,2-b]pyridin-1-yl)-2,4-difluorophenyl)propane-1-sulfonamide […] following oral administration at 40 mg and 80 mg (dose calculated as the free base) to HsdHan:WIST Norway rats. Each salt was administered to 3 animals."}, "[4]": {"assay": "Intrinsic dissolution rate, rotating disc method", "assay_type": "physicochemical", "protocol": "The intrinsic dissolution rate of 3-(5-((1-ethylpiperidin-4-yl)(methyl)amino)-3-(pyrimidin-5-yl)-1H-pyrrolo[3,2-b]pyridin-1-yl)-2,4-difluorophenyl)propane-1-sulfonamide salts was determined in aqueous media covering a range of pH 1.1-7.4 using the rotating disc method which maintains a constant surface area.\nThe drug substance (5 mg) was compressed at 356.1 Newtons for 60 s to form a disk. These disks were mounted to sample holders which fit into a miniaturized dissolution testing apparatus. The dissolution media were stirred at 200 rpm at a temperature of 37° C. Samples were automatically withdrawn every second minute from the dissolution vessel and assayed by UV spectrophotometry.\nThe intrinsic dissolution rate of N-(3-(5-((1-ethylpiperidin-4-yl)(methyl)amino)-3-(pyrimidin-5-yl)-TH-pyrrolo[3,2-b]pyridin-1-yl)-2,4-difluorophenyl)propane-1-sulfonamide monohydrochloride salt in various media was measured in media at various pH values.\nThe intrinsic dissolution rate of N-(3-(5-((1-ethylpiperidin-4-yl)(methyl)amino)-3-(pyrimidin-5-yl)-1H-pyrrolo[3,2-b]pyridin-1-yl)-2,4-difluorophenyl)propane-1-sulfonamide monosuccinate salt in various media was measured in media at various pH values."}, "[5]": {"assay": "Milling and compression stress followed by XRPD", "assay_type": "physicochemical", "protocol": "FIG. 20 is a plot of the XRPD of N-(3-(5-((1-ethylpiperidin-4-yl)(methyl)amino)-3-(pyrimidin-5-yl)-1H-pyrrolo[3,2-b]pyridin-1-yl)-2,4-difluorophenyl)propane-1-sulfonamide monohydrochloride salt following milling in a swing mill for 10 min. at 30 rps.\nFIG. 21 is a plot of the XRPD of N-(3-(5-((1-ethylpiperidin-4-yl)(methyl)amino)-3-(pyrimidin-5-yl)-1H-pyrrolo[3,2-b]pyridin-1-yl)-2,4-difluorophenyl)propane-1-sulfonamide monohydrochloride salt following compression at 2000 N for 1 s to a tablet (diameter-5 mm).\nFIG. 31 is a plot of the XRPD of N-(3-(5-((1-ethylpiperidin-4-yl)(methyl)amino)-3-(pyrimidin-5-yl)-1H-pyrrolo[3,2-b]pyridin-1-yl)-2,4-difluorophenyl)propane-1-sulfonamide monosuccinate salt following milling in a swing mill for 10 min. at 30 rps.\nFIG. 32 is a plot of the XRPD of N-(3-(5-((1-ethylpiperidin-4-yl)(methyl)amino)-3-(pyrimidin-5-yl)-1H-pyrrolo[3,2-b]pyridin-1-yl)-2,4-difluorophenyl)propane-1-sulfonamide monosuccinate salt following compression at 2000 N for 1 s to a tablet (diameter-5 mm)."}, "[6]": {"assay": "Intrinsic dissolution rate, rotating disc method", "assay_type": "physicochemical", "settings": "pH of medium 1.0 (0.1M HCl), 37° C."}}, "note": "Entries after “also recorded” stand apart in the source; their conditions may differ. Like-named read-outs stand apart in the source and are kept apart here.", "data": [{"smiles": "CCCS(=O)(=O)Nc1ccc(F)c(-n2cc(-c3cncnc3)c3nc(N(C)C4CCN(CC)CC4)ccc32)c1F.O=C(O)CCC(=O)O", "note": "[Monosuccinate Salt, N-(3-(5-((1-Ethylpiperidin-4-yl)(methyl)amino)-3-(pyrimidin-5-yl)-1H-pyrrolo[3,2-b]pyridin-1-yl)-2,4-difluorophenyl)propane-1-sulfonamide monosuccinate salt]", "values": [{"measurement": "Change in structure (XRPD) after sorption-desorption experiment", "setting": "[1]; XRPD before and after, monosuccinate salt", "result": "no change in crystallinity or polymorphic form; also recorded: no significant change in structure occurred"}, {"measurement": "Reversible weight gain (isotherm sorption-desorption)", "setting": "[1]; range from 0-80% relative humidity", "result": "approximately 0.25%"}, {"measurement": "Reversible weight gain (isotherm sorption-desorption)", "setting": "[1]; range from 0-90% relative humidity", "result": "approximately 0.4%"}, {"measurement": "Weight gain (sorption-desorption)", "setting": "[1]; range from 10-90% relative humidity, scale-up sample", "result": "approximately 1.2%"}, {"measurement": "solubility at 2 h", "setting": "[2]; 0.01 M HCl, simulated gastric fluid, HCl (0.01M)", "result": "> 50", "unit": "µg/mL"}, {"measurement": "solubility at 2 h", "setting": "[2]; 0.1 M HCl, simulated gastric fluid, HCl (0.1M)", "result": 200, "unit": "µg/mL"}, {"measurement": "Solubility compared with the monohydrochloride salt", "setting": "[2]; a number of media tested", "result": "substantially higher"}, {"measurement": "solubility at 2 h", "setting": "[2]; aqueous buffer, 0.1M Citric acid", "result": "> 5000", "unit": "µg/mL"}, {"measurement": "solubility at 2 h", "setting": "[2]; aqueous buffer, Acetate Buffer (pH 5.0)", "result": "> 5000", "unit": "µg/mL"}, {"measurement": "solubility at 2 h", "setting": "[2]; aqueous buffer, McIlvaine Buffer (pH 2.2)", "result": "> 5000", "unit": "µg/mL"}, {"measurement": "solubility at 2 h", "setting": "[2]; aqueous buffer, McIlvaine Buffer (pH 3.0)", "result": "> 5000", "unit": "µg/mL"}, {"measurement": "solubility at 2 h", "setting": "[2]; aqueous buffer, McIlvaine Buffer (pH 4.0)", "result": "> 5000", "unit": "µg/mL"}, {"measurement": "solubility at 2 h", "setting": "[2]; aqueous buffer, McIlvaine Buffer (pH 4.5)", "result": "> 5000", "unit": "µg/mL"}, {"measurement": "solubility at 2 h", "setting": "[2]; aqueous buffer, McIlvaine Buffer (pH 5.0)", "result": "> 5000", "unit": "µg/mL"}, {"measurement": "solubility at 2 h", "setting": "[2]; aqueous buffer, McIlvaine Buffer (pH 6.0)", "result": 3700, "unit": "µg/mL"}, {"measurement": "solubility at 2 h", "setting": "[2]; aqueous buffer, McIlvaine Buffer (pH 6.8)", "result": "> 5000", "unit": "µg/mL"}, {"measurement": "solubility at 2 h", "setting": "[2]; aqueous buffer, McIlvaine Buffer (pH 7.4)", "result": 300, "unit": "µg/mL"}, {"measurement": "solubility at 2 h", "setting": "[2]; aqueous buffer, Phosphate Buffer (pH 6.8)", "result": "> 5000", "unit": "µg/mL"}, {"measurement": "solubility at 2 h", "setting": "[2]; aqueous buffer, Sorensen Buffer (pH 9.0)", "result": 1, "unit": "µg/mL"}, {"measurement": "solubility at 2 h", "setting": "[2]; aqueous buffer, Sorensen Buffer (pH 11)", "result": 50, "unit": "µg/mL"}, {"measurement": "solubility at 2 h", "setting": "[2]; Simulated intestinal fluid (FaSSIF)", "result": 3, "unit": "µg/mL"}, {"measurement": "solubility at 2 h", "setting": "[2]; Simulated intestinal fluid (FeSSIF)", "result": 400, "unit": "µg/mL"}, {"measurement": "solubility at 2 h", "setting": "[2]; water", "result": "> 2000", "unit": "µg/mL"}, {"measurement": "AUD", "setting": "[3]; 40 mg/kg oral", "result": 30.3, "unit": "µM·h"}, {"measurement": "AUD", "setting": "[3]; 80 mg/kg oral", "result": 25.1, "unit": "µM·h"}, {"measurement": "Tmax", "setting": "[3]; HsdHan:WIST, in vivo, 40 mg/kg oral", "result": 2, "unit": "h"}, {"measurement": "Tmax", "setting": "[3]; HsdHan:WIST, in vivo, 80 mg/kg oral", "result": 2.7, "unit": "h"}, {"measurement": "bioavailability", "setting": "[3]; HsdHan:WIST, plasma, po, 40 mg/kg dose", "result": 50, "unit": "%"}, {"measurement": "Cmax", "setting": "[3]; HsdHan:WIST, plasma, 40 mg/kg oral", "result": 6550, "unit": "nM"}, {"measurement": "Cmax", "setting": "[3]; HsdHan:WIST, plasma, 80 mg/kg oral", "result": 3520, "unit": "nM"}, {"measurement": "concentration at 24 h", "setting": "[3]; HsdHan:WIST, in vivo, po, 40 mg/kg, Time 24.0, 40 mg/kg oral, mean n = 3, read-out: Blood Plasma Concentrations", "result": 3.98, "unit": "nM"}, {"measurement": "concentration at 24 h", "setting": "[3]; HsdHan:WIST, in vivo, po, 80 mg/kg, Time 24.0, 80 mg/kg oral, mean n = 3, read-out: Blood Plasma Concentrations", "result": 5.09, "unit": "nM"}, {"measurement": "concentration at 24 h", "setting": "[3]; Time 0.5, 40 mg/kg oral, mean n = 3, read-out: Blood Plasma Concentrations", "result": 523, "unit": "nM"}, {"measurement": "concentration at 24 h", "setting": "[3]; Time 0.5, 80 mg/kg oral, mean n = 3, read-out: Blood Plasma Concentrations", "result": 274, "unit": "nM"}, {"measurement": "concentration at 24 h", "setting": "[3]; Time 1.0, 40 mg/kg oral, mean n = 3, read-out: Blood Plasma Concentrations", "result": 1320, "unit": "nM"}, {"measurement": "concentration at 24 h", "setting": "[3]; Time 1.0, 80 mg/kg oral, mean n = 3, read-out: Blood Plasma Concentrations", "result": 638, "unit": "nM"}, {"measurement": "concentration at 24 h", "setting": "[3]; Time 2.0, 40 mg/kg oral, mean n = 3, read-out: Blood Plasma Concentrations", "result": 6550, "unit": "nM"}, {"measurement": "concentration at 24 h", "setting": "[3]; Time 2.0, 80 mg/kg oral, mean n = 3, read-out: Blood Plasma Concentrations", "result": 3380, "unit": "nM"}, {"measurement": "concentration at 24 h", "setting": "[3]; Time 4.0, 40 mg/kg oral, mean n = 3, read-out: Blood Plasma Concentrations", "result": 3860, "unit": "nM"}, {"measurement": "concentration at 24 h", "setting": "[3]; Time 4.0, 80 mg/kg oral, mean n = 3, read-out: Blood Plasma Concentrations", "result": 2620, "unit": "nM"}, {"measurement": "concentration at 24 h", "setting": "[3]; Time 6.0, 40 mg/kg oral, mean n = 3, read-out: Blood Plasma Concentrations", "result": 1140, "unit": "nM"}, {"measurement": "concentration at 24 h", "setting": "[3]; Time 6.0, 80 mg/kg oral, mean n = 3, read-out: Blood Plasma Concentrations", "result": 1420, "unit": "nM"}, {"measurement": "Exposure values compared with the monohydrochloride salt", "setting": "[3]; oral", "result": "substantially higher"}, {"measurement": "Intrinsic dissolution rate compared with the monohydrochloride salt", "setting": "[4]", "result": "substantially higher"}, {"measurement": "Intrinsic Dissolution Rate", "setting": "[4]; pH of medium 2.2, 37° C.", "result": 6844, "unit": "μg/cm^2/min."}, {"measurement": "Intrinsic Dissolution Rate", "setting": "[4]; pH of medium 3.0, 37° C.", "result": 6605, "unit": "μg/cm^2/min."}, {"measurement": "Intrinsic Dissolution Rate", "setting": "[4]; pH of medium 4.5, 37° C.", "result": 2457, "unit": "μg/cm^2/min."}, {"measurement": "Intrinsic Dissolution Rate", "setting": "[4]; pH of medium 6.8, 37° C.", "result": 2533, "unit": "μg/cm^2/min."}, {"measurement": "Intrinsic Dissolution Rate", "setting": "[4]; pH of medium 7.4, 37° C.", "result": "<1", "unit": "μg/cm^2/min."}, {"measurement": "Crystallinity and polymorphic form after compression (XRPD)", "setting": "[5]; 2000 N for 1 s to a tablet (diameter 5 mm)", "result": "no significant decrease in crystallinity or change in polymorphic form"}, {"measurement": "Crystallinity and polymorphic form after milling (XRPD)", "setting": "[5]; swing mill for 10 min. at 30 rps", "result": "slight decrease in crystallinity but no change in polymorphic form"}, {"measurement": "Intrinsic Dissolution Rate", "setting": "[6]", "result": 201, "unit": "μg/cm^2/min."}]}]}
